≈ marks a conversion by molar mass, not a printed value.
Experiments:
[1] = tested on: Klebsiella pneumoniae; test: Antimicrobial activity against Klebsiella pneumoniae ATCC 10031 assessed as growth inhibition after 24 hr by broth dilution assay method; type: functional; settings: ATCC 10031, 24 h
[2] = tested on: Bacillus subtilis; test: Antimicrobial activity against Bacillus subtilis ATCC 60511 assessed as growth inhibition after 24 hr by broth dilution assay method; type: functional; settings: ATCC 60511, 24 h
[3] = tested on: Enterococcus faecalis; test: Antimicrobial activity against […] ATCC 14506 assessed as growth inhibition after 24 hr by broth dilution assay method; type: functional; settings: ATCC 14506, 24 h
[4] = tested on: Staphylococcus aureus; test: Antimicrobial activity against Staphylococcus aureus ATCC 11632 assessed as growth inhibition after 24 hr by broth dilution assay method; type: functional; settings: ATCC 11632, 24 h
[5] = tested on: Mycobacterium tuberculosis; test: Antitubercular activity against Mycobacterium tuberculosis H37Rv assessed as growth inhibition after 21 days by broth dilution assay method; type: functional; settings: 504 h
[6] = tested on: Aspergillus niger; test: Antimicrobial activity against Aspergillus niger ATCC 6275 assessed as growth inhibition after 24 hr by broth dilution assay method; type: functional; settings: ATCC 6275, 24 h
[7] = tested on: Candida tropicalis; test: Antimicrobial activity against Candida tropicalis ATCC 1369 assessed as growth inhibition after 24 hr by broth dilution assay method; type: functional; settings: ATCC 1369, 24 h
[8] = tested on: Saccharomyces cerevisiae; test: Antimicrobial activity against Saccharomyces cerevisiae ATCC 9763 assessed as growth inhibition after 24 hr by broth dilution assay method; type: functional; settings: ATCC 9763, 24 h
[9] = tested on: Pseudomonas aeruginosa; test: Antimicrobial activity against Pseudomonas aeruginosa ATCC 10145 assessed as growth inhibition after 24 hr by broth dilution assay method; type: functional; settings: ATCC 10145, 24 h
[10] = tested on: Escherichia coli; test: Antimicrobial activity against Escherichia coli ATCC 10536 assessed as growth inhibition after 24 hr by broth dilution assay method; type: functional; settings: ATCC 10536, 24 h
[11] = (§1) Cytotoxicity against Homo sapiens (human) A549 cells assessed as viable cells at 250 uM by MTT assay in presence of fetal bovine serum; type: cell-based; settings: A549 cells, read-out: Activity
[12] = tested on: A549; test: as §1; type: cell-based; settings: a549, 250 µM

SMILES	MIC [1] [µg/mL]	MIC [2] [µg/mL]	MIC [3] [µg/mL]	MIC [4] [µg/mL]	MIC [5] [µg/mL]	MIC [6] [µg/mL]	MIC [7] [µg/mL]	MIC [8] [µg/mL]	MIC [9] [µg/mL]	MIC [10] [µg/mL]	viability at 250 µM [11] [%]	Activity [12]
C/C(=N\NC(=O)CSc1nnc(-c2nc(C(C)C)cs2)n1-c1ccccc1)c1ccc([N+](=O)[O-])cc1	31.2 (≈ 59.9 µM)	125 (≈ 240 µM)	31.2 (≈ 59.9 µM)	31.2 (≈ 59.9 µM)	62.5 (≈ 120 µM)	125 (≈ 240 µM)	31.2 (≈ 59.9 µM)	125 (≈ 240 µM)	62.5 (≈ 120 µM)	62.5 (≈ 120 µM)	–	–
COc1ccc(/C(C)=N/NC(=O)CSc2nnc(-c3nc(C(C)C)cs3)n2-c2ccccc2)cc1	250 (≈ 493 µM)	62.5 (≈ 123 µM)	31.2 (≈ 61.7 µM)	31.2 (≈ 61.7 µM)	8 (≈ 15.8 µM)	125 (≈ 247 µM)	125 (≈ 247 µM)	62.5 (≈ 123 µM)	62.5 (≈ 123 µM)	125 (≈ 247 µM)	–	–
C/C(=N\NC(=O)CSc1nnc(-c2nc(C(C)C)cs2)n1-c1ccccc1)c1ccc(O)cc1	31.2 (≈ 63.4 µM)	62.5 (≈ 127 µM)	31.2 (≈ 63.4 µM)	62.5 (≈ 127 µM)	16 (≈ 32.5 µM)	8 (≈ 16.2 µM)	8 (≈ 16.2 µM)	31.2 (≈ 63.4 µM)	16 (≈ 32.5 µM)	16 (≈ 32.5 µM)	50	–
C/C(=N\NC(=O)CSc1nnc(-c2nc(C(C)C)cs2)n1-c1ccccc1)c1ccc(C)cc1	16 (≈ 32.6 µM)	31.2 (≈ 63.7 µM)	62.5 (≈ 127 µM)	125 (≈ 255 µM)	62.5 (≈ 127 µM)	31.2 (≈ 63.7 µM)	125 (≈ 255 µM)	62.5 (≈ 127 µM)	62.5 (≈ 127 µM)	125 (≈ 255 µM)	–	–
C/C(=N\NC(=O)CSc1nnc(-c2nc(C(C)C)cs2)n1-c1ccccc1)c1ccc(Br)cc1	31.2 (≈ 56.3 µM)	62.5 (≈ 113 µM)	125 (≈ 225 µM)	16 (≈ 28.8 µM)	31.2 (≈ 56.3 µM)	31.2 (≈ 56.3 µM)	125 (≈ 225 µM)	31.2 (≈ 56.3 µM)	125 (≈ 225 µM)	62.5 (≈ 113 µM)	–	–
C/C(=N\NC(=O)CSc1nnc(-c2nc(C(C)C)cs2)n1-c1ccccc1)c1ccc(Cl)cc1	62.5 (≈ 122 µM)	125 (≈ 245 µM)	31.2 (≈ 61.1 µM)	31.2 (≈ 61.1 µM)	31.2 (≈ 61.1 µM)	125 (≈ 245 µM)	31.2 (≈ 61.1 µM)	31.2 (≈ 61.1 µM)	31.2 (≈ 61.1 µM)	16 (≈ 31.3 µM)	–	–
CC(C)c1csc(-c2nnc(SCc3nnc(-c4ccccc4)o3)n2-c2ccccc2)n1	62.5 (≈ 136 µM)	31.2 (≈ 67.8 µM)	31.2 (≈ 67.8 µM)	31.2 (≈ 67.8 µM)	–	31.2 (≈ 67.8 µM)	16 (≈ 34.7 µM)	16 (≈ 34.7 µM)	31.2 (≈ 67.8 µM)	125 (≈ 271 µM)	–	–
CC(C)c1csc(-c2nnc(SCc3nnc(CCl)o3)n2-c2ccccc2)n1	31.2 (≈ 72.2 µM)	31.2 (≈ 72.2 µM)	16 (≈ 37 µM)	8 (≈ 18.5 µM)	–	31.2 (≈ 72.2 µM)	125 (≈ 289 µM)	62.5 (≈ 144 µM)	16 (≈ 37 µM)	16 (≈ 37 µM)	–	–
CC(C)c1csc(-c2nnc(SCc3nnc(-c4ccc(Cl)cc4)o3)n2-c2ccccc2)n1	62.5 (≈ 126 µM)	4 (≈ 8.08 µM)	8 (≈ 16.2 µM)	8 (≈ 16.2 µM)	–	125 (≈ 253 µM)	125 (≈ 253 µM)	62.5 (≈ 126 µM)	62.5 (≈ 126 µM)	62.5 (≈ 126 µM)	50	–
CC(C)c1csc(-c2nnc(SCc3nnc(-c4ccc([N+](=O)[O-])cc4)o3)n2-c2ccccc2)n1	31.2 (≈ 61.8 µM)	62.5 (≈ 124 µM)	31.2 (≈ 61.8 µM)	31.2 (≈ 61.8 µM)	–	62.5 (≈ 124 µM)	31.2 (≈ 61.8 µM)	62.5 (≈ 124 µM)	31.2 (≈ 61.8 µM)	62.5 (≈ 124 µM)	–	–
Cc1ccc(-c2nnc(CSc3nnc(-c4nc(C(C)C)cs4)n3-c3ccccc3)o2)cc1	62.5 (≈ 132 µM)	125 (≈ 263 µM)	31.2 (≈ 65.8 µM)	62.5 (≈ 132 µM)	–	125 (≈ 263 µM)	31.2 (≈ 65.8 µM)	125 (≈ 263 µM)	62.5 (≈ 132 µM)	31.2 (≈ 65.8 µM)	–	–
CC(C)c1csc(-c2nnc(SCc3nnc(-c4ccc(O)cc4)o3)n2-c2ccccc2)n1	125 (≈ 262 µM)	31.2 (≈ 65.6 µM)	62.5 (≈ 131 µM)	31.2 (≈ 65.6 µM)	–	31.2 (≈ 65.6 µM)	31.2 (≈ 65.6 µM)	31.2 (≈ 65.6 µM)	31.2 (≈ 65.6 µM)	62.5 (≈ 131 µM)	–	–
CC(=O)NNC(=O)CSc1nnc(-c2nc(C(C)C)cs2)n1-c1ccccc1	31.2 (≈ 75 µM)	62.5 (≈ 150 µM)	125 (≈ 300 µM)	125 (≈ 300 µM)	62.5 (≈ 150 µM)	8 (≈ 19.2 µM)	8 (≈ 19.2 µM)	16 (≈ 38.4 µM)	125 (≈ 300 µM)	62.5 (≈ 150 µM)	–	–
CCOC(=O)CSc1nnc(-c2nc(C(C)C)cs2)n1-c1ccccc1	125 (≈ 322 µM)	62.5 (≈ 161 µM)	125 (≈ 322 µM)	125 (≈ 322 µM)	125 (≈ 322 µM)	62.5 (≈ 161 µM)	125 (≈ 322 µM)	62.5 (≈ 161 µM)	62.5 (≈ 161 µM)	125 (≈ 322 µM)	–	–
CC(C)c1csc(-c2nnc(SCC(=O)NN)n2-c2ccccc2)n1	8 (≈ 21.4 µM)	31.2 (≈ 83.4 µM)	31.2 (≈ 83.4 µM)	16 (≈ 42.7 µM)	16 (≈ 42.7 µM)	31.2 (≈ 83.4 µM)	31.2 (≈ 83.4 µM)	62.5 (≈ 167 µM)	8 (≈ 21.4 µM)	8 (≈ 21.4 µM)	50	–
COc1ccc(/C=N/NC(=O)CSc2nnc(-c3nc(C(C)C)cs3)n2-c2ccccc2)cc1OC	16 (≈ 30.6 µM)	8 (≈ 15.3 µM)	12 (≈ 23 µM)	8 (≈ 15.3 µM)	8 (≈ 15.3 µM)	16 (≈ 30.6 µM)	31.2 (≈ 59.8 µM)	16 (≈ 30.6 µM)	31.2 (≈ 59.8 µM)	16 (≈ 30.6 µM)	–	–
CC(C)c1csc(-c2nnc(SCC(=O)N/N=C/c3ccc(Cl)cc3)n2-c2ccccc2)n1	62.5 (≈ 126 µM)	31.2 (≈ 62.9 µM)	31.2 (≈ 62.9 µM)	62.5 (≈ 126 µM)	125 (≈ 251 µM)	31.2 (≈ 62.9 µM)	31.2 (≈ 62.9 µM)	16 (≈ 32.2 µM)	62.5 (≈ 126 µM)	31.2 (≈ 62.9 µM)	–	–
CC(C)c1csc(-c2nnc(SCC(=O)N/N=C/c3ccc(O)cc3)n2-c2ccccc2)n1	16 (≈ 33.4 µM)	125 (≈ 261 µM)	16 (≈ 33.4 µM)	125 (≈ 261 µM)	8 (≈ 16.7 µM)	31.2 (≈ 65.3 µM)	62.5 (≈ 131 µM)	–	62.5 (≈ 131 µM)	125 (≈ 261 µM)	–	Toxic
COc1cc(/C=N/NC(=O)CSc2nnc(-c3nc(C(C)C)cs3)n2-c2ccccc2)ccc1O	8 (≈ 15.7 µM)	16 (≈ 31.5 µM)	125 (≈ 246 µM)	125 (≈ 246 µM)	31.2 (≈ 61.4 µM)	31.2 (≈ 61.4 µM)	62.5 (≈ 123 µM)	16 (≈ 31.5 µM)	16 (≈ 31.5 µM)	8 (≈ 15.7 µM)	–	–
CC(C)c1csc(-c2nnc(SCC(=O)N/N=C/c3cccc([N+](=O)[O-])c3)n2-c2ccccc2)n1	16 (≈ 31.5 µM)	31.2 (≈ 61.6 µM)	31.2 (≈ 61.6 µM)	125 (≈ 246 µM)	62.5 (≈ 123 µM)	125 (≈ 246 µM)	31.2 (≈ 61.6 µM)	62.5 (≈ 123 µM)	62.5 (≈ 123 µM)	31.2 (≈ 61.6 µM)	–	–
O=C(O)c1cn(C2CC2)c2cc(N3CCNCC3)c(F)cc2c1=O [CIPROFLOXACIN]	≤ 1	≤ 1	≤ 5	≤ 5	–	–	–	–	≤ 5	≤ 1	–	–
OC(Cn1cncn1)(Cn1cncn1)c1ccc(F)cc1F [FLUCONAZOLE]	–	–	–	–	–	≤ 1	≤ 1	≤ 1	–	–	–	–
NNC(=O)c1ccncc1 [ISONIAZID]	–	–	–	–	0.25 (≈ 1.82 µM)	–	–	–	–	–	–	–
CCn1cc(C(=O)O)c(=O)c2cc(F)c(N3CCNCC3)cc21 [NORFLOXACIN]	≤ 1	≤ 1	≤ 5	≤ 5	–	–	–	–	≤ 5	≤ 1	–	–
